{
  "source": "patent US9532569B2",
  "about": "(INSTITUT NATIONAL DE LA RECHERCHE AGRONOMIQUE, priority 2012, dated 2017)",
  "key": {"[1]": {"assay": "Stability in aqueous medium (UPLC, % nondegraded compound)", "format": "physicochemical", "settings": "second experiment, longer incubation times; 50 μg/ml in methanol/water: 1/4, pH 6.7, 21° C.; FIG. 2", "description": "The stability in aqueous medium of the compound (IIa) according to the invention and that of GR24 as comparative compound was evaluated in the following way.\nEach compound was diluted in acetone (1 ml), then 50 μl of each solution were diluted with methanol (175 μl) and water (750 μl) so as to obtain a compound concentration of 50 μg/ml.\nThe aqueous solution thus obtained was incubated at 21° C. in HPLC vials.\nIndanol (25 μl of a solution at 1 mg/ml in acetone) was added to each solution in order to serve as an internal standard.\nThe degradation of each compound over time was monitored by analysis of samples taken from the solution at various time intervals, by Ultra Performance Liquid Chromatograpy (UPLC) by means of an Acquity UPLC HSS C18 column (1.8 μm, 2.1×50 mm), eluted first of all with a solution of acetonitrile at 5% in water containing 0.1% of formic acid, for 0.5 min, then with a gradient of 5% to 100% of acetonitrile in water containing 0.1% of formic acid, for 6.5 min, and with 100% of acetonitrile containing 0.1% of formic acid for 3 min. The column was maintained at a temperature of 40° C., with a flow of 0.6 ml/min.\nThe compounds eluted from the column were detected with a photodiode array detector.\nThe relative amount of nondegraded compound in the solution was determined by comparison with the internal standard.\nIn a second experiment, the stability in aqueous medium of the compounds (IIa) and (IIIb) according to the invention, and that of GR24 as comparative compound, was evaluated according to the protocol described above."}, "[2]": {"system": "pea rms4 mutant", "format": "in vivo, Pisum sativum L.", "description": "The protocol used is in accordance with that described in example 4 above. Compound concentrations of 100 nM and 3 μM were tested. A negative control consisting of the solvent alone (<<CTL 0>>) was also tested.\nThe number of dead buds following the treatment with 3 μM of compound was also determined after 8 days of treatment (on groups of 48 plants)."}, "[3]": {"system": "Phelipanche ramosa pv C", "assay": "Germinative activity on parasitic plants", "format": "in vivo", "settings": "counted after 4 days", "description": "(§1) In this example, the germinative activity of the compounds in accordance with the invention (IIa) and (IIIb) and of the comparative compound GR24 was evaluated on the parasitic plants: Orobanche cumana, Orobanche minor, Striga hermonthica, Phelipanche ramosa (pv T and pv C).\n(§2) The test protocol used was the following.\n(§3) Two populations of Phelipanche ramosa were used in this study, pathovar (pv) C and T, described in the publication by Benharrat et al. (2005). Seeds of Phelipanche ramosa pathovar C were collected at Saint Martin de Fraigneau, France, on broomrapes parasitizing winter oilseed rape (Brassica napus L.) in 2005 and seeds of Phelipanche ramosa pathovar T were collected in Sarthe, France, on broomrapes developing on hemp (Cannabis sativa L.) in 2007.\n(§4) The seeds are stored dry in the dark at 25° C.\n(§5) The compounds to be studied were resuspended in acetone at 10 mmol·l^−1, then diluted with water to 1 mmol·l^−1 (water/acetone; v/v; 99/1). Dilutions of 1×10^−3 mol·l^−1 to 1×10^−15 mol·l^−1 were then prepared in a water/acetone mixture (v/v; 99/1). Seeds of parasitic plants were surface-sterilized according to the protocol described in the publication by Vieira Dos Santos et al. (2003), then resuspended in sterile water (10 g·l^−1) and distributed on a 96-well plate (in a proportion of 50 μl, i.e. approximately 100 seeds per well). After preconditioning (7 days, 21° C., in the dark, plate hermetically sealed, except for the seeds of S. hermonthica, which were preconditioned at 30° C.), the compounds to be studied were added and the volumes adjusted to 100 μl with water (water/acetone; v/v; 999/1).\n(§6) In a plate, a range of concentrations from 10^−13 mol·l^−1 to 10^−6 mol·l^−1 was applied for GR24 and (IIa) and from 10^−12 to 10^−5 mol·l^−1 for (IIIb). Controls were carried out with a water/acetone mixture (v/v; 999/1) and without seeds. The plates were incubated so as to allow germination (21° C., in the dark or 30° C. for Striga hermonthica.). After 4 days, the seeds which had germinated were counted under a stereomicroscope (SZX10, Olympus). The seeds were considered to have germinated when the radicle was sticking out of the seed tegument. Each germination test was repeated at least 3 times. For each compound tested, dose-response curves (g=f(c), where g is the germination percentage and c the concentration (mol·l^−1)), and the EC50 (median effective concentration) were modeled on the basis of a 4-parameter logistic curve calculated with SigmaPlot® 10.0.\n(§7) The percentages of maximum germination induced by the compounds tested for each parasitic plant were determined."}, "[4]": {"system": "Phelipanche ramosa pv T", "assay": "Germinative activity on parasitic plants", "format": "in vivo", "settings": "counted after 4 days", "description": "as §1, §2, §3, §4, §5, §6, §7"}, "[5]": {"system": "Striga hermonthica", "assay": "Germinative activity on parasitic plants", "format": "in vivo", "settings": "counted after 4 days, 30° C.", "description": "as §1, §2\nSeeds of Striga hermonthica (Del.) Benth were collected at Gadarif, Eastern Sudan, in 1999.\nas §4, §5\nas §6, with “The seeds were considered to have germinated when the radicle was sticking out of the seed tegument. Each germination test was repeated at least 3 times.” left out\nas §7"}, "[6]": {"system": "Orobanche cumana", "assay": "Germinative activity on parasitic plants", "format": "in vivo", "settings": "counted after 4 days", "description": "as §1, §2\n(§8) Seeds of Orobanche cumana Wallr. were collected from broomrapes parasitizing sunflower (Helianthus annuus L.), at Longeville-sur-mer, France, in 2009; seeds of clover broomrape (Orobanche minor Sm.) from a parasite of red clover (Trifolium pratense L.) were obtained from Professor K. Yoneyama (Utsunomiya University, Japan).\nas §4, §5, §6, §7"}, "[7]": {"system": "Orobanche minor", "assay": "Germinative activity on parasitic plants", "format": "in vivo", "settings": "counted after 4 days", "description": "as §1, §2, §8, §4, §5, §6, §7"}, "[8]": {"system": "MRC5 cells", "assay": "In vitro cytotoxicity study on MRC5 cells (MTS)", "format": "cell-based, human", "settings": "Homo sapiens, MRC5, 72 hours, ± standard error, read-out: Percentage inhibition of MRC5 cell growth", "description": "The cytotoxicity of the compound (IIa) according to the invention, and that of GR24 and of GR5 as comparative compounds, was evaluated in vitro, at concentrations of 10^−4 M and 10^−5 M, on MRC5 cells, in DMSO, in the following way.\nMRC5 cells (human lung (fibroblasts) were cultured in Dulbecco's modified Eagle medium (DMEM) supplemented with: 25 mM of glucose, 10% (v/v) of fetal calf serum, 100 IU of penicillin, 100 μg/ml of streptomycin and 1.5 μg/ml of fungizone, and kept under 5% of CO2 at 37° C.\n96-well plates were seeded with 2100 MRC5 cells per well in 200 μl of medium. After 24 hours, each of the compounds dissolved in DMSO was added for 72 hours, at a final concentration of 10^−4 M or 10^−5 M in a fixed volume of DMSO. The controls received an equal volume of DMSO.\nThe viable cell number was measured at 490 nm with the MTS reagent (Promega), and, for each compound, the concentration causing 50% inhibition of cell growth, IC50, was calculated."}, "[9]": {"system": "pea rms1 mutants", "assay": "Hydroponic culture test in pea", "format": "in vivo, Pisum sativum L.", "settings": "1 μM in hydroponic culture solution, 8 days; FIG. 12", "description": "For this example, ramosus (rms1) hyperbranched pea (Pisum sativum L.) mutants were used.\nMore particularly, rms1 (rms1-10) hyperbranched mutant plants were used. The nutritive solution (100%) was prepared by adding the following macronutrients to 1000 l of water: HNO3 (0.28 l), (NH4)2HPO4 (120 g), Ca(NO3)2 (40 g), Mg(NO3)2 (140 g), KNO3 (550 g), (NH4)2MoO4 (0.05 g), H3BO3 (15 g), MnSO4.H2O (2 g), ZnSO4.7H2O (1 g), CuSO4.5H2O (0.25 g), Sequestrene® (10 g) (Fe-EDTA solution). The pea seeds were germinated in moist sand for 6 days, then placed in holes of a lid (35 holes/lid, 20 mm in diameter) of an opaque PVC pot containing the hydroponic culture solution (47 l, pH 5.8).\nIn a first experiment, acetone or the compound to be tested (dissolved in acetone) was added to the hydroponic culture solution so as to obtain a final concentration of 0 or 1 μM of compound to be tested and 0.01% of acetone.\nThe hydroponic culture solution was continually aerated by means of an aquarium pump and replaced each week. 8 days after the start of the treatment, the lengths of bud/branch (nodes 1 to 6) were measured with an electronic sliding caliper.\nThis experiment was carried out for the compounds according to the invention (IIa) and (IIIb), and also the GR24 compound as comparative compound. A negative control (<<CTL 0>>), corresponding to a treatment with the solvent alone, was also carried out.\nThe results (mean data on 20 plants), in terms of, on the one hand, length of the branches at nodes 3 to 5 and, on the other hand, plant height, are shown respectively in FIGS. 11 and 12.\nThe same experiment was carried out for the compound in accordance with the invention (II″g) and the comparative compound GR24. Dimethyl sulfoxide (DMSO) or the compound to be tested, dissolved in DMSO, was added to the hydroponic culture solution so as to obtain a final concentration of 0 or 3 μM of compound to be tested and 0.01% of DMSO.\nThe results (mean data on 10 to 12 plants), in terms, on the one hand, of length of the branches at nodes 3 to 4 and, on the other hand, of plant height, are shown respectively in FIGS. 13 and 14."}},
  "data": [
    {"smiles": "COC(=O)/C=C/C(C)=C/OC1OC(=O)C(C)=C1C", "note": "(stereo not shown) [Compound (IIIb)]", "values": [
      {"measurement": "chemical stability in aqueous solution (% of nondegraded compound as a function of incubation time)", "setting": "[1]", "result": "even better than that of the compound (IIa)"},
      {"measurement": "length of bud/branch at node 3 (toxicity)", "setting": "[2]; 100 nM and 3 μM, 8 days after treatment at node 3, FIG. 15", "result": "absence of effects of the compounds in accordance with the invention (IIa) and (IIIb) compared with a negative control, and between the two treatment doses"},
      {"measurement": "number of dead buds after treatment", "setting": "[2]; 3 μM, 8 days of treatment, groups of 48 plants, FIG. 16", "result": "did not cause the death of any bud"},
      {"measurement": "Percentage of maximum germination induced", "setting": "[3]", "result": "no (no significant germination compared to the negative control (<2%))"},
      {"measurement": "Percentage of maximum germination induced", "setting": "[4]", "result": "88 ± 6", "unit": "%"},
      {"measurement": "Percentage of maximum germination induced", "setting": "[5]", "result": "no (no significant germination compared to the negative control (<2%))"},
      {"measurement": "Percentage of maximum germination induced", "setting": "[6]", "result": "no (no significant germination compared to the negative control (<2%))"},
      {"measurement": "Percentage of maximum germination induced", "setting": "[7]", "result": "60 ± 6", "unit": "%"}
    ]},
    {"smiles": "CC1=CC(O/C=C2/C(=O)OC3c4ccccc4C[C@H]23)OC1=O", "note": "(stereo partly shown) [GR24, reference compound]", "values": [
      {"measurement": "inhibition at 100 µM", "setting": "[8]; 10^−4M", "result": "97 ± 1", "unit": "%"},
      {"measurement": "inhibition at 10 µM", "setting": "[8]; 10^−5M", "result": 0, "unit": "%"},
      {"measurement": "plant height", "setting": "[9]", "result": "significant effect on plant height is also demonstrated, comparable between the comparative compound GR24 and the compound in accordance with the invention (IIa)"},
      {"measurement": "Percentage of maximum germination induced", "setting": "[3]", "result": "89 ± 6", "unit": "%"},
      {"measurement": "Percentage of maximum germination induced", "setting": "[4]", "result": "87 ± 7", "unit": "%"},
      {"measurement": "Percentage of maximum germination induced", "setting": "[5]", "result": "57 ± 5", "unit": "%"},
      {"measurement": "Percentage of maximum germination induced", "setting": "[6]", "result": "78 ± 5", "unit": "%"},
      {"measurement": "Percentage of maximum germination induced", "setting": "[7]", "result": "81 ± 5", "unit": "%"}
    ]}
  ]
}
